± gives the expanded uncertainty stated by the source.
Assay: refractive index (Na D-line) (dimensionless); xn = mol fraction of the nth substance listed
Conditions: 99 kPa, Liquid, Standard Abbe refractometry

CCCC[n+]1ccccc1.F[B-](F)(F)F [1-butylpyridinium tetrafluoroborate] + O
refractive index
Conditions	293.15 K	303.15 K	313.15 K	323.15 K
x1 = 0.0165	1.34819 ± 0.00035	1.34644 ± 0.00035	1.34468 ± 0.00034	1.34263 ± 0.00034
x1 = 0.0379	1.36348 ± 0.00033	1.3612 ± 0.00033	1.35896 ± 0.00033	1.35635 ± 0.00033
x1 = 0.0863	1.38639 ± 0.00032	1.38392 ± 0.00032	1.38128 ± 0.00032	1.37835 ± 0.00032
x1 = 0.101	1.39141 ± 0.00032	1.38881 ± 0.00032	1.38613 ± 0.00032	1.38331 ± 0.00032
x1 = 0.134	1.40063 ± 0.00032	1.39805 ± 0.00032	1.39527 ± 0.00032	1.3926 ± 0.00032
x1 = 0.243	1.41888 ± 0.00032	1.41639 ± 0.00032	1.41376 ± 0.00032	1.41106 ± 0.00032
x1 = 0.289	1.42371 ± 0.00032	1.42115 ± 0.00032	1.41853 ± 0.00032	1.41585 ± 0.00032
x1 = 0.3456	1.42826 ± 0.00032	1.42571 ± 0.00032	1.42304 ± 0.00032	1.42041 ± 0.00032
x1 = 0.4217	1.43287 ± 0.00032	1.4303 ± 0.00032	1.42763 ± 0.00032	1.42496 ± 0.00032
x1 = 0.5485	1.43815 ± 0.00033	1.43558 ± 0.00033	1.43295 ± 0.00033	1.43025 ± 0.00033
x1 = 0.6029	1.43987 ± 0.00034	1.43726 ± 0.00034	1.43463 ± 0.00034	1.43194 ± 0.00034
x1 = 0.7232	1.44283 ± 0.00034	1.44021 ± 0.00034	1.43755 ± 0.00034	1.43489 ± 0.00034
x1 = 0.8005	1.44431 ± 0.00035	1.44168 ± 0.00035	1.43905 ± 0.00035	1.43637 ± 0.00035
x1 = 0.8575	1.44526 ± 0.00036	1.44261 ± 0.00036	1.43999 ± 0.00036	1.43731 ± 0.00036
x1 = 0.9315	1.44633 ± 0.00036	1.44368 ± 0.00036	1.44105 ± 0.00036	1.43838 ± 0.00036
x1 = 1	1.44719 ± 0.00037	1.44454 ± 0.00037	1.44191 ± 0.00037	1.43923 ± 0.00037

From the NIST ThermoML archive (doi:10.1016/j.jct.2016.04.003)
